The values below come from PubChem BioAssay (NCI).

Each structure is given as a SMILES string.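 1) Cells in 96-well plates. 2) Compound, 48 h, 5 concentrations. 3) Linear interpolation between surrounding doses. 4) Unreached endpoint = highest concentration. At the GI50, growth is halved. TGI is the concentration that stops growth completely.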 Bounds are passed on as bounds.

Common to all, as to test: NCI-60 cell line screen, 48 h
Test [1] has as its system U251 CNS.
Test [2] deals with UACC-257 melanoma.
Test [3] deals with CAKI-1 renal.
Test [4] relates to SF-539 CNS.
Test [5] has as its system PC-3 prostate.
Test [6] concerns LOX IMVI melanoma.
Test [7] concerns SR leukemia.
The subject of test [8] is T-47D breast.
Test [9] has as its system HOP-62 NSCLC.
The test system of test [10] is COLO 205 colon.

Regarding `C[C@@H](CO)[C@@H]1CCC=C2CC[C@]3(C)[C@H](CC[C@@H]4[C@@]5(C)CCCNC(C)(C)[C@@H]5CC[C@]43C)[C@H]21`, the GI50 in [1] is 1.84 µM; in [2], 2.59 µM; in test [3] it was 1.89 µM; in [4], 3.48 µM; in test [5] it was 2.97 µM; in test [6], 1.74 µM. Further, the GI50 was 5.44 µM in test [7], 2.38 µM in [8] and 2.08 µM in test [9]. In addition, the TGI in test [1] is 3.46 µM; in test [2], 7.08 µM; in test [3] it was 4.25 µM; in test [4], 14.6 µM; in test [5], 13.4 µM; in [6], 3.17 µM. Besides, the TGI was greater than 100 µM in [7], 7.77 µM in [8] and 4.21 µM in [9].

As for `N#Cc1c(N)nc(N2CCOCC2)c(C#N)c1-c1cccnc1`, the GI50 in test [1] is greater than 100 µM; in [2] it was 93.1 µM; in [3] it was 32.6 µM; in test [4], greater than 100 µM; in [5] it was 33.5 µM; in test [6], 63.1 µM. Also, the GI50 is 34 µM in test [8], 36 µM in [10] and 24.9 µM in test [9]. The TGI was greater than 100 µM in [1]; greater than 100 µM in test [2]; 95 µM in test [3]; greater than 100 µM in test [4]; greater than 100 µM in test [5]; greater than 100 µM in test [6]. Besides, the TGI in test [8] is 66.7 µM; in test [10] it was 96.2 µM; in test [9] it was greater than 100 µM.

Take `Nc1nc(-c2ccccc2)nc2c1[n+]([O-])c1ccccc1[n+]2[O-]`: the TGI in test [1], in test [2], in test [3], in test [4], in [5] and in test [6] was greater than 100 µM throughout. Moreover, the TGI in [8], in test [10] and in test [9] was greater than 100 µM throughout.

On to `CCNC(=O)c1cc2c(-c3cc(C(C)(C)O)ccc3Oc3c(C)cc(F)cc3C)cn(C)c(=O)c2[nH]1`, for which the GI50 is 2.09 µM in test [1]; 2.27 µM in [2]; 0.875 µM in test [3]; 1.92 µM in test [4]; 2.42 µM in [5]; 0.922 µM in test [6]. Besides, the values for the GI50 in test [8], in test [10] and in [9] were 1.08 µM, 0.507 µM and 0.914 µM, respectively. For the same molecule, the TGI was determined as 16.7 µM in [1]; 18.5 µM in test [2]; 13.2 µM in test [3]; 13.2 µM in [4]; 13.9 µM in test [5]; 2.74 µM in test [6]. Moreover, the values for the TGI in test [8], in test [10] and in test [9] were 18 µM, 2.84 µM and 13.7 µM, respectively.

In the case of `CC1OC(OC2C(O[C@H]3CC[C@@]4(C)C(=CC[C@H]5[C@@H]6C[C@@H]7O[C@]8(CC[C@H](C)CN8)[C@@H](C)[C@@H]7[C@@]6(C)CC[C@@H]54)C3)OC(CO)C(O)C2OC2OC(CO)C(O)C(O)C2O)C(O)C(O)C1O` (stereo not given in full), the TGI in [1] was greater than 100 µM; in test [2] it was 33 µM; in test [3], 34 µM; in test [4], 33.8 µM; in test [5] it was 33.5 µM; in [6] it was 83.6 µM. For the same molecule, the TGI in test [7] is 61.6 µM; in test [8], 39 µM; in test [10], 31.8 µM.

Regarding `CCCCS(=O)(=O)CCC(N)C(=O)O` (stereo not given), the TGI in test [1], in [2], in [3], in test [4], in [5] and in [7] was greater than 100 µM each time. The TGI in test [8], in test [10] and in test [9] was greater than 100 µM throughout.

Take `O=C1c2ccccc2C(=O)c2c1ccc(C1C(=O)c3ccccc3C1=O)c2-c1c(C2C(=O)c3ccccc3C2=O)ccc2c1C(=O)c1ccccc1C2=O`: the TGI in [1], in test [2], in test [3], in test [4], in test [5] and in [6] was greater than 100 µM in each case. In addition, the TGI in test [8], in test [10] and in test [9] was greater than 100 µM in each case.

As for `CN1c2ccccc2C(C)(C)C12C=Cc1cc(O)ccc1O2` (stereo not given), the GI50 was 3.18 µM in [1]; 2.94 µM in [2]; 3.37 µM in test [3]; 1.94 µM in test [4]; 3.6 µM in test [5]; 3.41 µM in test [6]. For the same molecule, the GI50 in test [8] was 4 µM; in test [10], 1.9 µM; in [9] it was 3.44 µM. The TGI in test [1] is 10.9 µM; in [2], 12.1 µM; in test [3], 12.4 µM; in [4] it was 4.15 µM; in test [5] it was 12.6 µM; in test [6] it was 12.6 µM. Further, the TGI in test [8] was 16.9 µM; in [10] it was 3.88 µM; in test [9], 10.6 µM.

`Cc1cccc2c(=O)c3c(sc12)c(NCCNCCO)nc1ccccc13`: the GI50 in test [1] was 1.56 µM; in test [2], 1.86 µM; in test [3], 1.25 µM; in test [4], 1.72 µM; in [5], 1.3 µM; in test [6], 1.5 µM. Further, the results for the GI50 in test [8], in [10] and in test [9] were 1.33 µM, 1.56 µM and 1.28 µM, respectively. Also, the TGI was found to be 3.09 µM in test [1]; 3.79 µM in test [2]; 2.56 µM in test [3]; 3.12 µM in test [4]; 2.73 µM in test [5]; 2.92 µM in test [6]. Also, the TGI in test [8] was found to be 3.13 µM; in [10], 3.35 µM; in [9], 2.87 µM.

Consider `c1csc(-c2cc(-c3cccs3)c(-c3cccs3)s2)c1`, for which the TGI in [1], in test [2], in test [3], in test [4], in test [5] and in [7] was greater than 100 µM throughout. Besides, the TGI in test [8] is 77 µM; in [10], greater than 100 µM; in test [9], greater than 100 µM.
